Legend:
Male wistar rats = assay: Carbon tetrachloride induced hepatotoxicity in rats (serum AST and ALT); format: in vivo, rat; conditions: for Protection against CCl4 induced toxicity: orally, rats
Experimental: Carbon tetrachloride is a classical method to induce free radical mediated hepatotoxicity. In order to evaluate the free radical mediated hepatotoxicity and heptoprotective properties in the compound (−)-wikstromol, this method was employed. Male wistar rats were selected for study. The compound was dissolved in a small amount of DMSO and reconstituted in gum acacia/water. The compound was given one hour before CCl4 administration to the over-night fasted rats in a dose of 250 mg/kg-body weight, orally. After one hour, a mixture of CCl4 and liquid paraffin (1:1, v/v) in the dose of 2.5 ml/kg was given orally. Fasting was continued. However, water was provided ad-libitum. After 5 hrs of CCl4 administration, blood was taken out from the retroorbital plexus. Serum aspartase transaminase and serum alanine transaminase was measured as a marker of hepatotoxicity.
Carbon tetrachloride induced toxicity was repeated as referred in the example 2 by changing the dosage level to 300 mg/kg-body weight, orally. Fasting was continued. However, water was provided ad-libitum. After 5hrs of CCl4 administration, blood was taken out from the retroorbital plexus. Serum aspartase transaminase and serum alanine transaminase was measured as a marker of hepatotoxicity.

[1] = tested on: p-388 lymphocyte leukemia; conditions: cited from earlier work
HIV = conditions: cited from earlier work
[2] = serum, 5 hours after CCl4 administration, compound 250 mg/kg orally one hour before CCl4 2.5 ml/kg, mean ± SD

COc1cc(C[C@@H]2COC(=O)[C@@]2(O)Cc2ccc(O)c(OC)c2)ccc1O [(−)-wikstromol, 4,4^1,8-trihydroxy-3,3^1-dimethoxyliganan-9,9^1-olide]
Protection against CCl4 induced toxicity (Male wistar rats; 250 mg/kg-body weight): significantly prevented CCl4 induced toxicity | Protection against CCl4 induced toxicity (Male wistar rats; 300 mg/kg-body weight): shows significant activity and prevented CCl4 induced toxicity | Hepatoprotective effectiveness (Male wistar rats; dosage of 250 to 300 mg/kg of body weight): highly effective | ALT (U/L) Before (Male wistar rats; serum alanine transaminase before oral administration of compound and CCl4, mean ± SD, 250 mg/kg group): 42 ± 7 U/L | AST (U/L) Before (Male wistar rats; serum aspartate transaminase before oral administration of compound and CCl4, mean ± SD, 250 mg/kg group): 281 ± 91 U/L | ALT (U/L) After (Male wistar rats; [2]): 188 ± 66 U/L | AST (U/L) After (Male wistar rats; [2]): 557 ± 126 U/L | Activity against p-388 lymphocyte leukemia [1]: active | Anti-HIV activity (HIV): anti-HIV activity

From patent US6537593B2, “Plant phenol as new hepatoprotective agents” (Council of Scientific and Industrial Research, priority 2000, dated 2003)
